# From the kinase profiling compilation of Christmann-Franck et al. (2016)
# Where “and” joins values, the source holds several entries; their conditions need not be identical. Equal entries are not always repeated.
# How the values were obtained:
# Experiment in all cases: radiometric filter-binding kinase assay, Kinase HotSpot
# Conditions in all cases: compound 0.5 µM; ATP 10 µM
# BTK (human) = BTK (human) (UniProt Q06187)
# MAP4K5 (human) = MAP4K5 (human) (UniProt Q9Y4K4)
# LRRK2 (human) = LRRK2 (human) (UniProt Q5S007)
# CAMK1D (human) = CAMK1D (human) (UniProt Q8IU85)
# PRKCG (human) = PRKCG (human) (UniProt P05129)
# YES1 (human) = YES1 (human) (UniProt P07947)
# NEK1 (human) = NEK1 (human) (UniProt Q96PY6)
# CSNK1G1 (human) = CSNK1G1 (human) (UniProt Q9HCP0)
# MAP2K2 (human) = MAP2K2 (human) (UniProt P36507)
# HCK (human) = HCK (human) (UniProt P08631)
# TAOK3 (human) = TAOK3 (human) (UniProt Q9H2K8)
# HIPK1 (human) = HIPK1 (human) (UniProt Q86Z02)
# DYRK4 (human) = DYRK4 (human) (UniProt Q9NR20)
# PRKCD (human) = PRKCD (human) (UniProt Q05655)
# PRKG1 (human) = PRKG1 (human) (UniProt Q13976)
# EPHA5 (human) = EPHA5 (human) (UniProt P54756)
# INSRR (human) = INSRR (human) (UniProt P14616)
# MAPK12 (human) = MAPK12 (human) (UniProt P53778)
# EPHA8 (human) = EPHA8 (human) (UniProt P29322)
# NEK4 (human) = NEK4 (human) (UniProt P51957)
# NEK7 (human) = NEK7 (human) (UniProt Q8TDX7)
# DCLK2 (human) = DCLK2 (human) (UniProt Q8N568)
# CHUK (human) = CHUK (human) (UniProt O15111)
# CAMK2B (human) = CAMK2B (human) (UniProt Q13554)
# MAPK8 (human) = MAPK8 (human) (UniProt P45983)
# SGK2 (human) = SGK2 (human) (UniProt Q9HBY8)
# MARK2 (human) = MARK2 (human) (UniProt Q7KZI7)
# RET (human) = RET (human) (UniProt P07949)
# EPHA1 (human) = EPHA1 (human) (UniProt P21709)
# SRPK2 (human) = SRPK2 (human) (UniProt P78362)
# ERBB4 (human) = ERBB4 (human) (UniProt Q15303)
# NEK9 (human) = NEK9 (human) (UniProt Q8TD19)
# JAK2 JH1 JH2 (human) = JAK2 JH1 JH2 (human) (UniProt O60674)
# PRKD1 (human) = PRKD1 (human) (UniProt Q15139)
# GRK5 (human) = GRK5 (human) (UniProt P34947)
# GRK4 (human) = GRK4 (human) (UniProt P32298)
# NEK6 (human) = NEK6 (human) (UniProt Q9HC98)
# CDK4 CCND3 (human) = CDK4 CCND3 (human) (UniProt P30281+P11802)
# DSTYK (human) = DSTYK (human) (UniProt Q6XUX3)
# MAP3K3 (human) = MAP3K3 (human) (UniProt Q99759)
# BMX (human) = BMX (human) (UniProt P51813)
# ABL2 (human) = ABL2 (human) (UniProt P42684)
# Chain of ABL2 (human) (P42684 whole entry, looked up): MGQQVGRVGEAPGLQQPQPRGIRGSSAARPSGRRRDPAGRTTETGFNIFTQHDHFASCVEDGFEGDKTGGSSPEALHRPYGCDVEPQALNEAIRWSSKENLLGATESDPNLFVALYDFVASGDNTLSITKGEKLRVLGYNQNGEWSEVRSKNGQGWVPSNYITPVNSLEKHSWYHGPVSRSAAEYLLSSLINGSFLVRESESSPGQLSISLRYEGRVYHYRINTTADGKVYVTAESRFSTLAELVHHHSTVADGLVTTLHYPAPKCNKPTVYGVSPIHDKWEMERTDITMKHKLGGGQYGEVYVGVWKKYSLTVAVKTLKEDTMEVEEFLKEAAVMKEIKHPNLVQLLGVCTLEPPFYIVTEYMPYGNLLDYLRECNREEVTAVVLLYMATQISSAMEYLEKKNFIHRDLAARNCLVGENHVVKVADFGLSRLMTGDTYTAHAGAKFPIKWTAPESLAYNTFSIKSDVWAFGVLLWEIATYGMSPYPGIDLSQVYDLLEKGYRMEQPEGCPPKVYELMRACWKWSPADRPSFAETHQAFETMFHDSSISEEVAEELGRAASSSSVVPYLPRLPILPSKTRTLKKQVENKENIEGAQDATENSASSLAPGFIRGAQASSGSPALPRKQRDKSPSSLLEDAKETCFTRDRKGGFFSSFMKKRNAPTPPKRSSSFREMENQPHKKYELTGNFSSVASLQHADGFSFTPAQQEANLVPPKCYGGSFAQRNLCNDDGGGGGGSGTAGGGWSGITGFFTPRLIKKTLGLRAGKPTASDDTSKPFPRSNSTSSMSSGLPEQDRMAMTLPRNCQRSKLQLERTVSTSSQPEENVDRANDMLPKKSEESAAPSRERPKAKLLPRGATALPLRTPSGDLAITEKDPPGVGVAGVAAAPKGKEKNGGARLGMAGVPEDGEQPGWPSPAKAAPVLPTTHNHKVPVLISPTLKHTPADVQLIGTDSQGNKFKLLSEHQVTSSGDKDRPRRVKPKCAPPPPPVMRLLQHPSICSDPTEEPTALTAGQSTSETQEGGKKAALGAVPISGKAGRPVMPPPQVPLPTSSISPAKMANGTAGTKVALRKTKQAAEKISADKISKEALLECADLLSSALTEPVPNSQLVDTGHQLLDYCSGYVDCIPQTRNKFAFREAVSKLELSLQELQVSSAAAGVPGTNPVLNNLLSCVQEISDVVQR
# Chain of HCK (human) (P08631 whole entry, looked up): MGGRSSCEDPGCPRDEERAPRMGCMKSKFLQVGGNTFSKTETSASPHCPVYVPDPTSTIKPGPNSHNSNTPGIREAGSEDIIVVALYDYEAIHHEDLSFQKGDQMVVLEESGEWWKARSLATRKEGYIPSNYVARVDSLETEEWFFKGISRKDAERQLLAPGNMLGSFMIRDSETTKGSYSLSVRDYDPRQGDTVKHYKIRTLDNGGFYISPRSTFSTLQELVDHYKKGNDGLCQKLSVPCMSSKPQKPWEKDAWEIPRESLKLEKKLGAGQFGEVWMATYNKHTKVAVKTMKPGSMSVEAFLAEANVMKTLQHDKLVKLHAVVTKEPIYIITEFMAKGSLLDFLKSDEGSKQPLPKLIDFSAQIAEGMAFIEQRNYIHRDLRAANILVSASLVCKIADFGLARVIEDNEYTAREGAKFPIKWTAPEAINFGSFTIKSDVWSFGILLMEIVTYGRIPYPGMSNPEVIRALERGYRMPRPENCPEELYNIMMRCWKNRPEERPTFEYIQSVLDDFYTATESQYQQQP
# Chain of DCLK2 (human) (Q8N568 whole entry, looked up): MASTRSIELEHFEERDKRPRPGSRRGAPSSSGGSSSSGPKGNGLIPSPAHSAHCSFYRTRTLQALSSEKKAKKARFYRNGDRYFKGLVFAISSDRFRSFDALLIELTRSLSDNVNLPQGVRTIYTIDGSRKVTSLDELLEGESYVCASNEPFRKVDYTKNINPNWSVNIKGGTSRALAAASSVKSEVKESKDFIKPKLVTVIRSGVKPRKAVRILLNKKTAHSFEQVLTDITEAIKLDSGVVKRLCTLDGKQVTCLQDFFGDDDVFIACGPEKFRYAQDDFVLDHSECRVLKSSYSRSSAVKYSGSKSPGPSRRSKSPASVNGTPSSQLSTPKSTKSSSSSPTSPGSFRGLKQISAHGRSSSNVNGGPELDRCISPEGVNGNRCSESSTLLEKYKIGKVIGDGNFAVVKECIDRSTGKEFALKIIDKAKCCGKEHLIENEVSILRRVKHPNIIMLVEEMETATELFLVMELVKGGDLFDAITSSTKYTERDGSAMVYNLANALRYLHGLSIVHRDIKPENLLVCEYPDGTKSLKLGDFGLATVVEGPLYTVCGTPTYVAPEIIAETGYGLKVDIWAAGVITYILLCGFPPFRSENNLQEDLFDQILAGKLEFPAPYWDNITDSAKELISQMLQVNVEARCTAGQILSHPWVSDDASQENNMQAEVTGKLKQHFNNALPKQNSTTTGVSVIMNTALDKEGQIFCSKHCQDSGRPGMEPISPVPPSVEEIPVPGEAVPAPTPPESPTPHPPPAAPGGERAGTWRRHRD
# Chain of NEK7 (human) (Q8TDX7 whole entry, looked up): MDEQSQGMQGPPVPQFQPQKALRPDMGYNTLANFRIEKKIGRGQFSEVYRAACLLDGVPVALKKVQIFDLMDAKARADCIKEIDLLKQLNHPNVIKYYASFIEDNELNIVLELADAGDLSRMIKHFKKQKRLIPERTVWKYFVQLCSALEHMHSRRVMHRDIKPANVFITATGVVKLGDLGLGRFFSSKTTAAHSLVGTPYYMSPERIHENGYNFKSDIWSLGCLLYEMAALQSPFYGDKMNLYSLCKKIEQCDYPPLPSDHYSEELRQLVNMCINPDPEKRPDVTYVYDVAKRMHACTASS
# Chain of PRKD1 (human) (Q15139 whole entry, looked up): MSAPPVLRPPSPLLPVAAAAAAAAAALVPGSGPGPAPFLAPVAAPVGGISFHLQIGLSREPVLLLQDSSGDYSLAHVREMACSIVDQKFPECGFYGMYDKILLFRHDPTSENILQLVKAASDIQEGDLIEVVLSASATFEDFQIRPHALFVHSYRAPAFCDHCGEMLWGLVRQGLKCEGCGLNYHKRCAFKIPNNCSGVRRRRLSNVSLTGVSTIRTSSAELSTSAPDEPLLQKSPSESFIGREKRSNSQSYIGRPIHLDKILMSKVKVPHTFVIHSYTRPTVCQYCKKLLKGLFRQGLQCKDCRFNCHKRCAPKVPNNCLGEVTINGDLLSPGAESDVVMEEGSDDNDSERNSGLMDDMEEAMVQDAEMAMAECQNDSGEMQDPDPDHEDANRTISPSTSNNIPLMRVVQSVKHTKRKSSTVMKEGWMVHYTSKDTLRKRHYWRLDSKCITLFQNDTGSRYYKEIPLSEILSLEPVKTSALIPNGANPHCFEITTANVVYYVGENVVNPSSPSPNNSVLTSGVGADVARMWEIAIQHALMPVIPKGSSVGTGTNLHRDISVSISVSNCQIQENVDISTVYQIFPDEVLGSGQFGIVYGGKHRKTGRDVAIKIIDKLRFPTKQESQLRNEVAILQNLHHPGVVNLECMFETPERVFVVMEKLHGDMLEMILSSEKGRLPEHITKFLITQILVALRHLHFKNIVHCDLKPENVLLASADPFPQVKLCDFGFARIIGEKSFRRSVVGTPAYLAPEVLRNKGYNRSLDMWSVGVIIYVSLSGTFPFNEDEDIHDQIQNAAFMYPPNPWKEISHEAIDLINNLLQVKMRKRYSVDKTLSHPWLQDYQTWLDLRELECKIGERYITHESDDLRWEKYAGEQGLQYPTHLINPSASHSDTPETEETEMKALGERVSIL
# Chain of SGK2 (human) (Q9HBY8 whole entry, looked up): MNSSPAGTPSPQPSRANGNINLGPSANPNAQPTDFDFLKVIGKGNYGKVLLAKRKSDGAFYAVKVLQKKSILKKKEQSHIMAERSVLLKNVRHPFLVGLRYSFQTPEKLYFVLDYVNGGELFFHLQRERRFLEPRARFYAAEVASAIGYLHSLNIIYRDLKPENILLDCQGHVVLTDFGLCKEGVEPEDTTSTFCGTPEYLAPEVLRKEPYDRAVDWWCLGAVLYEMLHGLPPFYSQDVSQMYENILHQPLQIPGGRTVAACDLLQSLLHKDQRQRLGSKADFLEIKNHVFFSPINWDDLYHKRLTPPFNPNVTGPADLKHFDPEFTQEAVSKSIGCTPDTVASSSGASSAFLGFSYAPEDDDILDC
# Chain of NEK4 (human) (P51957 whole entry, looked up): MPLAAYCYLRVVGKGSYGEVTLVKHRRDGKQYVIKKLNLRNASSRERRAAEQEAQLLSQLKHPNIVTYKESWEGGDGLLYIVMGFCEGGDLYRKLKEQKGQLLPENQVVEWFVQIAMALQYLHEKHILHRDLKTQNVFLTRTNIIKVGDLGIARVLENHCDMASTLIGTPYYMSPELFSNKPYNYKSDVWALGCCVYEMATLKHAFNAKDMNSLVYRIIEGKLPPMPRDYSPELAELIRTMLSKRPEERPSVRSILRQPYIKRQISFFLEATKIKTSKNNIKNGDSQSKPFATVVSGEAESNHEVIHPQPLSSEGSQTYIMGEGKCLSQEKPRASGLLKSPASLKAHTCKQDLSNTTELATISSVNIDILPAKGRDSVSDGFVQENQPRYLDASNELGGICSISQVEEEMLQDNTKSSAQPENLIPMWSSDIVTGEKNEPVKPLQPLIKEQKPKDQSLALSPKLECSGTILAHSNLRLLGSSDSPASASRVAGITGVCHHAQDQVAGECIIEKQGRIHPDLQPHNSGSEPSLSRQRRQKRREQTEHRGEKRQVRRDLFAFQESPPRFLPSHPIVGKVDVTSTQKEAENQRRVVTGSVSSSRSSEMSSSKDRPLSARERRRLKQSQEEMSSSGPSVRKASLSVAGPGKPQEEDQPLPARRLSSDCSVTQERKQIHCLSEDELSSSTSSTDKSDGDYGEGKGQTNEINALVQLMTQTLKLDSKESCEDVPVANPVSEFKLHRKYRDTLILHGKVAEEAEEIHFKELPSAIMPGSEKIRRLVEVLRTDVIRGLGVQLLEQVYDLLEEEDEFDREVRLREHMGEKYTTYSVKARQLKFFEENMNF
smiles,measurement,setting,value
Oc1ccc(-c2nc(-c3ccc(F)cc3)c(-c3ccncc3)[nH]2)cc1,residual activity,BTK (human),101%
same,residual activity,MAP4K5 (human),96.6%
same,residual activity,LRRK2 (human),95.8%
same,residual activity,CAMK1D (human),102%
same,residual activity,PRKCG (human),87.9%
same,residual activity,YES1 (human),84.7%
same,residual activity,NEK1 (human),98.9%
same,residual activity,CSNK1G1 (human),97.3%
same,residual activity,MAP2K2 (human),101%
same,residual activity,HCK (human),97.6%
same,residual activity,TAOK3 (human),103%
same,residual activity,HIPK1 (human),98.2%
same,residual activity,DYRK4 (human),101%
same,residual activity,PRKCD (human),99.3%
same,residual activity,PRKG1 (human),87% and 90.4%
same,residual activity,EPHA5 (human),90.7%
same,residual activity,INSRR (human),98%
same,residual activity,MAPK12 (human),102%
same,residual activity,EPHA8 (human),93.6%
same,residual activity,NEK4 (human),94%
same,residual activity,NEK7 (human),103%
same,residual activity,DCLK2 (human),102%
same,residual activity,CHUK (human),107%
same,residual activity,CAMK2B (human),96.4%
same,residual activity,MAPK8 (human),98%
same,residual activity,SGK2 (human),99.6%
same,residual activity,MARK2 (human),99%
same,residual activity,RET (human),89.3%
same,residual activity,EPHA1 (human),94.4%
same,residual activity,SRPK2 (human),102%
same,residual activity,ERBB4 (human),83.1%
same,residual activity,NEK9 (human),99.4%
same,residual activity,JAK2 JH1 JH2 (human),96.2%
same,residual activity,PRKD1 (human),90.7%
same,residual activity,GRK5 (human),104%
same,residual activity,GRK4 (human),98.5%
same,residual activity,NEK6 (human),99.4%
same,residual activity,CDK4 CCND3 (human),104%
same,residual activity,DSTYK (human),100%
same,residual activity,MAP3K3 (human),103%
same,residual activity,BMX (human),93.9%
same,residual activity,ABL2 (human),91.1%
CC(C)[C@H](CO)Nc1nc(Nc2cccc(Cl)c2)c2ncn(C(C)C)c2n1,residual activity,BTK (human),75.6%
same,residual activity,MAP4K5 (human),97.5%
same,residual activity,LRRK2 (human),77.7%
same,residual activity,CAMK1D (human),103%
same,residual activity,PRKCG (human),98.2%
same,residual activity,YES1 (human),21.2%
same,residual activity,NEK1 (human),107%
same,residual activity,CSNK1G1 (human),28%
same,residual activity,MAP2K2 (human),104%
same,residual activity,HCK (human),55.6%
same,residual activity,TAOK3 (human),91.1%
same,residual activity,HIPK1 (human),103%
same,residual activity,DYRK4 (human),91.2%
same,residual activity,PRKCD (human),104%
same,residual activity,PRKG1 (human),71.4% and 90.2%
same,residual activity,EPHA5 (human),87.9%
same,residual activity,INSRR (human),88.2%
same,residual activity,MAPK12 (human),106%
same,residual activity,EPHA8 (human),102%
same,residual activity,NEK4 (human),94.4%
same,residual activity,NEK7 (human),101%
same,residual activity,DCLK2 (human),100%
same,residual activity,CHUK (human),106%
same,residual activity,CAMK2B (human),94.3%
same,residual activity,MAPK8 (human),99%
same,residual activity,SGK2 (human),103%
same,residual activity,MARK2 (human),95.7%
same,residual activity,RET (human),81.4%
same,residual activity,EPHA1 (human),98.3%
same,residual activity,SRPK2 (human),53.6%
same,residual activity,ERBB4 (human),78.4%
same,residual activity,NEK9 (human),93.1%
same,residual activity,JAK2 JH1 JH2 (human),97.7%
same,residual activity,PRKD1 (human),96.9%
same,residual activity,GRK5 (human),101%
same,residual activity,GRK4 (human),91.1%
same,residual activity,NEK6 (human),91.3%
same,residual activity,CDK4 CCND3 (human),88.3%
same,residual activity,DSTYK (human),105%
same,residual activity,MAP3K3 (human),102%
same,residual activity,BMX (human),84.3%
same,residual activity,ABL2 (human),32.2%
Cc1ccc(NC(=O)c2ccc(CN3CCN(C)CC3)cc2)cc1Nc1nc(-c2cccnc2)cs1,residual activity,BTK (human),99.6%
same,residual activity,MAP4K5 (human),97%
same,residual activity,LRRK2 (human),107%
same,residual activity,CAMK1D (human),110%
same,residual activity,PRKCG (human),95.8%
same,residual activity,YES1 (human),50.7%
same,residual activity,NEK1 (human),116%
same,residual activity,CSNK1G1 (human),92.4%
same,residual activity,MAP2K2 (human),114%
same,residual activity,HCK (human),55.7%
same,residual activity,TAOK3 (human),95.4%
same,residual activity,HIPK1 (human),97.4%
same,residual activity,DYRK4 (human),100%
same,residual activity,PRKCD (human),97.9%
same,residual activity,PRKG1 (human),77.6% and 93.8%
same,residual activity,EPHA5 (human),104%
same,residual activity,INSRR (human),102%
same,residual activity,MAPK12 (human),96.9%
same,residual activity,EPHA8 (human),93.1%
same,residual activity,NEK4 (human),92.4%
same,residual activity,NEK7 (human),96.3%
same,residual activity,DCLK2 (human),102%
same,residual activity,CHUK (human),96.2%
same,residual activity,CAMK2B (human),100%
same,residual activity,MAPK8 (human),107%
same,residual activity,SGK2 (human),106%
same,residual activity,MARK2 (human),104%
same,residual activity,RET (human),96.4%
same,residual activity,EPHA1 (human),96.5%
same,residual activity,SRPK2 (human),101%
same,residual activity,ERBB4 (human),93.5%
same,residual activity,NEK9 (human),98.6%
same,residual activity,JAK2 JH1 JH2 (human),96.3%
same,residual activity,PRKD1 (human),98.2%
same,residual activity,GRK5 (human),106%
same,residual activity,GRK4 (human),108%
same,residual activity,NEK6 (human),91.3%
same,residual activity,CDK4 CCND3 (human),115%
same,residual activity,DSTYK (human),92.4%
same,residual activity,MAP3K3 (human),108%
same,residual activity,BMX (human),104%
same,residual activity,ABL2 (human),57.7%
Cc1cc2ncc(-c3ccccc3)nc2cc1C,residual activity,BTK (human),94.8%
same,residual activity,MAP4K5 (human),89.3%
same,residual activity,LRRK2 (human),94.4%
same,residual activity,CAMK1D (human),100%
same,residual activity,PRKCG (human),96.9%
same,residual activity,YES1 (human),102%
same,residual activity,NEK1 (human),96.1%
same,residual activity,CSNK1G1 (human),85.7%
same,residual activity,MAP2K2 (human),97.6%
same,residual activity,HCK (human),90.1%
same,residual activity,TAOK3 (human),96.2%
same,residual activity,HIPK1 (human),105%
same,residual activity,DYRK4 (human),90.3%
same,residual activity,PRKCD (human),92.3%
same,residual activity,PRKG1 (human),86.2% and 93.7%
same,residual activity,EPHA5 (human),96.1%
same,residual activity,INSRR (human),95.5%
same,residual activity,MAPK12 (human),87.3%
same,residual activity,EPHA8 (human),94.5%
same,residual activity,NEK4 (human),99.3%
same,residual activity,NEK7 (human),102%
same,residual activity,DCLK2 (human),100%
same,residual activity,CHUK (human),86.9%
same,residual activity,CAMK2B (human),101%
same,residual activity,MAPK8 (human),101%
same,residual activity,SGK2 (human),101%
same,residual activity,MARK2 (human),84.5%
same,residual activity,RET (human),88%
same,residual activity,EPHA1 (human),99.9%
same,residual activity,SRPK2 (human),95.3%
same,residual activity,ERBB4 (human),96.4%
same,residual activity,NEK9 (human),93.1%
same,residual activity,JAK2 JH1 JH2 (human),97.3%
same,residual activity,PRKD1 (human),100%
same,residual activity,GRK5 (human),107%
same,residual activity,GRK4 (human),94.9%
same,residual activity,NEK6 (human),101%
same,residual activity,CDK4 CCND3 (human),94.6%
same,residual activity,DSTYK (human),95.5%
same,residual activity,MAP3K3 (human),103%
same,residual activity,BMX (human),90%
same,residual activity,ABL2 (human),103%
